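Test compounds were applied to cells in 96-well plates for 48 hours at 5 doses. GI50 marks 50% less growth. TGI: concentration producing complete growth inhibition.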
Key:
Assay in all cases: inhibition of tumour cell growth, NCI panel, 48 h
HCC-2998 colon = system: HCC-2998 colon
RXF 393 renal = system: RXF 393 renal
MDA-MB-435 = system: MDA-MB-435
RPMI-8226 leukemia = system: RPMI-8226 leukemia
SK-MEL-5 melanoma = system: SK-MEL-5 melanoma
IGROV1 ovarian = system: IGROV1 ovarian
SNB-75 CNS = system: SNB-75 CNS
T-47D breast = system: T-47D breast
NCI/ADR-RES ovarian = system: NCI/ADR-RES ovarian
UACC-257 melanoma = system: UACC-257 melanoma
OVCAR-3 ovarian = system: OVCAR-3 ovarian
SK-OV-3 ovarian = system: SK-OV-3 ovarian
786-0 renal = system: 786-0 renal
NCI-H226 lung = system: NCI-H226 lung
A498 renal = system: A498 renal
HCT-15 colon = system: HCT-15 colon
SW-620 colon = system: SW-620 colon
COLO 205 colon = system: COLO 205 colon
SF-268 CNS = system: SF-268 CNS
K-562 leukemia = system: K-562 leukemia
BT-549 breast = system: BT-549 breast
HS 578T breast = system: HS 578T breast
PC-3 prostate = system: PC-3 prostate
MDA-MB-231 breast = system: MDA-MB-231 breast
TK-10 renal = system: TK-10 renal
MALME-3M melanoma = system: MALME-3M melanoma
NCI-H522 lung = system: NCI-H522 lung
EKVX NSCLC = system: EKVX NSCLC

Question: `CC(=O)Oc1ccccc1C(=O)Nc1ccc(C(=O)/C=C/c2ccncc2)cc1` was tested. Which GI50 (HCC-2998 colon) did it give?
Answer: Its GI50 is 22.2 µM.

Question: And the TGI (HCC-2998 colon)?
Answer: The TGI was 55.2 µM.

Question: And the GI50 (RXF 393 renal)?
Answer: The GI50 was 24.4 µM.

Question: What about the TGI (RXF 393 renal) of the same molecule?
Answer: Its TGI is 98.9 µM.

Question: And the GI50 (MDA-MB-435)?
Answer: Its GI50 is 27.8 µM.

Question: And the TGI (MDA-MB-435)?
Answer: Its TGI is > 100 µM.

Question: What about the GI50 (RPMI-8226 leukemia) of the same molecule?
Answer: Its GI50 is 15 µM.

Question: And the TGI (RPMI-8226 leukemia)?
Answer: Its TGI is 49.2 µM.

Question: And the GI50 (SK-MEL-5 melanoma)?
Answer: Its GI50 is > 100 µM.

Question: And the TGI (SK-MEL-5 melanoma)?
Answer: The TGI was > 100 µM.

Question: And the GI50 (IGROV1 ovarian)?
Answer: The GI50 was 51.7 µM.

Question: What about the TGI (IGROV1 ovarian) of the same molecule?
Answer: The TGI was > 100 µM.

Question: And the GI50 (SNB-75 CNS)?
Answer: Its GI50 is > 100 µM.

Question: And the TGI (SNB-75 CNS)?
Answer: Its TGI is > 100 µM.

Question: What about the GI50 (T-47D breast) of the same molecule?
Answer: Its GI50 is 60 µM.

Question: What about the TGI (T-47D breast) of the same molecule?
Answer: Its TGI is > 100 µM.

Question: What about the GI50 (NCI/ADR-RES ovarian) of the same molecule?
Answer: The GI50 was > 100 µM.

Question: And the TGI (NCI/ADR-RES ovarian)?
Answer: Its TGI is > 100 µM.

Question: And the GI50 (UACC-257 melanoma)?
Answer: The GI50 was > 100 µM.

Question: And the TGI (UACC-257 melanoma)?
Answer: Its TGI is > 100 µM.

Question: And the GI50 (OVCAR-3 ovarian)?
Answer: The GI50 was 36.1 µM.

Question: And the TGI (OVCAR-3 ovarian)?
Answer: Its TGI is > 100 µM.

Question: And the GI50 (SK-OV-3 ovarian)?
Answer: Its GI50 is > 100 µM.

Question: What about the TGI (SK-OV-3 ovarian) of the same molecule?
Answer: Its TGI is > 100 µM.

Question: And the GI50 (786-0 renal)?
Answer: The GI50 was > 100 µM.

Question: And the TGI (786-0 renal)?
Answer: Its TGI is > 100 µM.

Question: What about the GI50 (NCI-H226 lung) of the same molecule?
Answer: Its GI50 is > 100 µM.

Question: What about the TGI (NCI-H226 lung) of the same molecule?
Answer: The TGI was > 100 µM.

Question: And the GI50 (A498 renal)?
Answer: The GI50 was > 100 µM.

Question: And the TGI (A498 renal)?
Answer: Its TGI is > 100 µM.

Question: And the GI50 (HCT-15 colon)?
Answer: The GI50 was 25.7 µM.

Question: What about the TGI (HCT-15 colon) of the same molecule?
Answer: The TGI was > 100 µM.

Question: What about the GI50 (SW-620 colon) of the same molecule?
Answer: Its GI50 is 24.3 µM.

Question: What about the TGI (SW-620 colon) of the same molecule?
Answer: Its TGI is > 100 µM.

Question: And the GI50 (COLO 205 colon)?
Answer: Its GI50 is 38.1 µM.

Question: What about the TGI (COLO 205 colon) of the same molecule?
Answer: Its TGI is > 100 µM.

Question: What about the GI50 (SF-268 CNS) of the same molecule?
Answer: Its GI50 is 61.8 µM.

Question: What about the TGI (SF-268 CNS) of the same molecule?
Answer: Its TGI is > 100 µM.

Question: What about the GI50 (K-562 leukemia) of the same molecule?
Answer: The GI50 was 22.7 µM.

Question: And the TGI (K-562 leukemia)?
Answer: The TGI was > 100 µM.

Question: And the GI50 (BT-549 breast)?
Answer: The GI50 was 25.1 µM.

Question: What about the TGI (BT-549 breast) of the same molecule?
Answer: The TGI was > 100 µM.

Question: What about the GI50 (HS 578T breast) of the same molecule?
Answer: Its GI50 is 57.4 µM.

Question: And the TGI (HS 578T breast)?
Answer: The TGI was > 100 µM.

Question: And the GI50 (PC-3 prostate)?
Answer: Its GI50 is 49.8 µM.

Question: And the TGI (PC-3 prostate)?
Answer: The TGI was > 100 µM.

Question: What about the GI50 (MDA-MB-231 breast) of the same molecule?
Answer: Its GI50 is > 100 µM.

Question: What about the TGI (MDA-MB-231 breast) of the same molecule?
Answer: The TGI was > 100 µM.

Question: And the GI50 (TK-10 renal)?
Answer: The GI50 was > 100 µM.

Question: And the TGI (TK-10 renal)?
Answer: The TGI was > 100 µM.

Question: What about the GI50 (MALME-3M melanoma) of the same molecule?
Answer: Its GI50 is > 100 µM.

Question: What about the TGI (MALME-3M melanoma) of the same molecule?
Answer: Its TGI is > 100 µM.

Question: And the GI50 (NCI-H522 lung)?
Answer: Its GI50 is > 100 µM.

Question: What about the TGI (NCI-H522 lung) of the same molecule?
Answer: The TGI was > 100 µM.

Question: And the GI50 (EKVX NSCLC)?
Answer: The GI50 was > 100 µM.

Question: What about the TGI (EKVX NSCLC) of the same molecule?
Answer: The TGI was > 100 µM.
